The Hill slope is the slope factor of the fitted curve. For orientation: solubility means the dissolved amount per volume that the medium holds.

SMILES strings stand for the structures. Converted amounts (≈) assume the structure as drawn.

Series [1] addresses T1, human ecto-5′-NT (Homo sapiens, UniProt P21589).
T1 construct: purchased OriGene Technologies, Inc (Rockville, MD, USA)
T1 sequence (P21589 27-574): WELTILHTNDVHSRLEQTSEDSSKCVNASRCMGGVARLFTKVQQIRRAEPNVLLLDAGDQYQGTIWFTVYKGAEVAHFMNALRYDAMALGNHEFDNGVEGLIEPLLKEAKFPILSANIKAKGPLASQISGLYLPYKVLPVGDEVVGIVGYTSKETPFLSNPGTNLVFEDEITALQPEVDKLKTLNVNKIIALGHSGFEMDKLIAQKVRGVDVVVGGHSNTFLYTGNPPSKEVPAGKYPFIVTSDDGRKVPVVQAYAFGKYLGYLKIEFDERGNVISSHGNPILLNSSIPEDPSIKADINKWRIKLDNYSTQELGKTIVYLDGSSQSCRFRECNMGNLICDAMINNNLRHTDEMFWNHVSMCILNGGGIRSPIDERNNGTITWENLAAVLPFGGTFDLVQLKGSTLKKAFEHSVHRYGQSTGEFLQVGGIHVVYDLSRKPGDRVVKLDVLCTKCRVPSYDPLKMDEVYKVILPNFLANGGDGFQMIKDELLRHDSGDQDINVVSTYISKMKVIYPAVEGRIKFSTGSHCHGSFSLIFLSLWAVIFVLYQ
Kind of series: Non-ionic detergent-sensitivity evaluation: enzyme inhibition assay with 0.01% (v/v) Triton X-100. In kind it is biochemical. To be noted: human ecto-5′-NT 3.6 nM, AMP 500 µM, read-out: IC50 in the presence of 0.01% (v/v) Triton X-100. As for the experimental part: (§1) Enzyme inhibition assays (without Triton X-100). Following procedures described in the literature, with some modifications, all assays were carried out in a reaction mixture containing HEPES buffer (10 mM; pH = 7.4), MgCl2 (2 mM), CaCl2 (1 mM), human ecto-5′-NT (3.6 nM), AMP (500 µM) as substrate and variable concentration of each tested compound (from 0 to 500 µM for A and from 0 to 100 µM for B, C and D). Stock solutions of each compound were prepared in DMSO. The final concentration of DMSO in all samples/assays/experiments was 1.0% (v/v). Results were controlled for the effect of DMSO on enzymatic activity. After incubation for 10 min at 37.0 ± 0.2 °C, the reactions were stopped by heating the system for 5 min at 99.0 ± 0.2 °C. Inorganic phosphate concentrations were quantified spectrophotometrically (at λ = 630 nm), using the malachite green method, as described in the literature. Each experiment was done in triplicate. A four-parameter logistic non-linear regression model was used to fit the experimental data, using GraphPad Prism 7.0 (GraphPad, San Diego, CA, USA). From the corresponding fitted curves, we obtained the IC50 values, except when the minimum plateau value from the dose-response curve was far from zero. For such curves, IC50 ranges were estimated based on the inhibition (%) achieved at the maximum tested concentration.
(i) Non-ionic detergent-sensitivity evaluation: For each compound (A, B, C and D), enzyme inhibition assays were done, similarly as described above, using however Triton X-100 (a non-ionic detergent) at a final concentration of 0.01% (v/v) in the reaction mixture.

The target in series [2] is T1, human ecto-5′-NT. Kind of series: Enzyme inhibition assay (without Triton X-100), malachite green method. In kind it is biochemical. As to conditions: human ecto-5′-NT 3.6 nM; for IC50: AMP 500 µM, without Triton X-100, HEPES pH 7.4; for Hill slope: concentration-inhibition curve, without Triton X-100. As for the experimental part:
as §1

Series [3] has as its target T1, human ecto-5′-NT. Kind of series: Enzyme concentration sensitivity evaluation: enzyme inhibition assay at 36 nM enzyme. Type of series: biochemical. To be noted: human ecto-5′-NT 36 nM (10-fold increase), AMP 500 µM. Here is the method:
as §1
(ii) Enzyme concentration sensitivity evaluation: For each compound (A, B, C and D), enzyme inhibition assays were done, similarly as described above, but using human ecto-5′-NT at 36 nM (increased by 10-fold).

Series [4] can be described thus: Dynamic light scattering (DLS), aggregation kinetics. In kind it is physicochemical. As to conditions: 80 µM, HEPES buffer pH 7.4, 1.0% (v/v) DMSO. Here is the method:
(iv) Dynamic light scattering (DLS): Particle size (mean zeta-average diameter D) for compound C was determined using a Zeta Plus Zeta-Potential Analyzer (Brookshaven Instruments Corporation, Hotsville, NY, USA) equipped with a 570 nm laser for dynamic light scattering at 90° [63]. Solutions of Compound C (80 µM) were prepared in HEPES buffer (10 mM), pH = 7.4. The final concentration of DMSO in each sample was 1.0% (v/v).

A short description of series [5]: Turbidimetric solubility assay. As to conditions: HEPES buffer with MgCl2 and CaCl2, aqueous buffer, kinetic from dmso stock; HEPES buffer 10 mM pH 7.4, MgCl2 2 mM, CaCl2 1 mM, 1.0% (v/v) DMSO; turbidity at 400 nm; read-out: Estimated Solubility. Type of series: physicochemical. As for the experimental part:
The final DMSO concentration in each sample was 1.0% (v/v). Increased turbidity (light scattering) was measured at 400 nm, since all compounds have absorbance peaks below this wavelength. Each sample was prepared and measured in triplicate. All measurements were done using a Hitachi U-2010 spectrophotometer.

A short description of series [6]: Turbidity at 400 nm as a function of time. In kind it is physicochemical. As to conditions: A 500 µM, B 100 µM, D 250 µM; HEPES buffer pH 7.4, 1.0% (v/v) DMSO; precipitates seen after 60 min. As for the experimental part:
Additionally, turbidity at 400 nm as a function of time was followed for compounds A–D (Figure 6a). The concentration of each compound in these assays was near to the maximum that could be obtained, so that DMSO concentration was kept at 1.0% (v/v) in the assay buffer. […] In fact, after 60 min, precipitates at the bottom of the cuvettes were clearly observed by visual inspection (data not shown).
Figure 6 (a) Turbidity at 400 nm as a function of time measured for compounds A, B, C and D (at 500 µM, 100 µM, 80 µM and 250 µM, respectively). Each solution was prepared in HEPES buffer (10 mM), containing MgCl2 (2 mM) and CaCl2 (1 mM), pH = 7.4. Final concentration of DMSO in each sample was 1.0% (v/v); (b) Mean diameter (D) values as a function of time for compound C (80 µM) as determined by DLS. A solution of C was prepared in HEPES buffer (10 mM), containing MgCl2 (2 mM) and CaCl2 (1 mM), pH = 7.4. Final concentration of DMSO in each sample was 1.0% (v/v).
Turbidimetric assays were done using a Hitachi U-2010 spectrophotometer (Hitachi, Chiyoda, Tokyo, Japan). DLS analysis was done using a Zeta Plus Zeta-Potential Analyzer (Brookshaven Instruments Corporation, Hotsville, NY, USA) equipped with a 570 nm laser for dynamic light scattering at 90°. For enzymatic assays, absorbance measurements were done using a FlexStation 3 Multi-Mode Microplate Reader (Molecular Devices, LLC, San Jose, CA, USA).

In the case of `Nc1ncnc2c1ncn2[C@@H]1O[C@H](COP(=O)(O)OP(=O)(O)O)[C@@H](O)[C@H]1O` [ADP, adenosine diphosphate, reference compound], the IC50 in series [1] came to 31.7 ± 1.2 µM; in series [2] it was 29.7 ± 1.2 µM; in series [3], 27.2 ± 1.1 µM.
Consider `CSc1nnc(NC(=O)c2cc(-c3cc(C)cc(C)c3O)n[nH]2)s1` [Compound C, 3-(2-hydroxy-3,5-dimethylphenyl)-N-[5-(methylsulfanyl)-1,3,4-thiadiazol-2-yl]-1H-pyrazole-5-carboxamide], for which the IC50 in series [1] is over 100 µM. Besides, the “Aggregate particle size (mean diameter) as a function of time by DLS” value in series [4] is “aggregate particle size slowly increased with time”. Besides, in series [2], the Hill slope is reported as −3.19 and the IC50 worked out at 16.3 ± 1.1 µM. Also, in series [5], the solubility was 11.7 µM (≈ 4.23 µg/mL).
Consider `O=C(COC(=O)c1n[nH]c2ccccc12)Nc1c(F)cccc1F` [Compound A, [(2,6-difluorophenyl)carbamoyl]methyl 1H-indazole-3-carboxylate], for which the “Turbidity at 400 nm as a function of time” value (“Turbidity at 400 nm” for short) in series [6] is listed as “a decrease in turbidity is observed as a function of time”. The IC50 in series [1] was over 500 µM. In series [2], this molecule displayed a Hill slope of −2.75 and an IC50 of 82.9 ± 1.1 µM. Also, the solubility in series [5] was 79.1 µM (≈ 26.2 µg/mL).
On to `O=C(Nc1nc2ccc(F)cc2s1)c1cc(-c2ccccc2O)n[nH]1` [B, N-(6-fluoro-1,3-benzothiazol-2-yl)-3-(2-hydroxyphenyl)-1H-pyrazole-5-carboxamide], for which the “Turbidity at 400 nm” value in series [6] was “a decrease in turbidity is observed as a function of time”. Further, the results for the IC50 in series [1], in series [2] and in series [3] were 2.3 ± 1.2 µM, 1.9 ± 1 µM and over 36 µM, respectively. In series [2], this molecule yielded a Hill slope of −2.90. The solubility in series [5] is 8.8 µM (≈ 3.12 µg/mL).
Take `CS(=O)(=O)c1ccc2nc(NC(=O)c3cc(-c4ccccc4O)[nH]n3)sc2c1` [Compound D, 5-(2-hydroxyphenyl)-N-(6-methanesulfonyl-1,3-benzothiazol-2-yl)-1H-pyrazole-3-carboxamide]: in series [6], the “Turbidity at 400 nm” value is recorded as “a decrease in turbidity is observed as a function of time”. Also, the IC50 in series [1] is over 36 µM; in series [2] it was 2.2 ± 1.2 µM; in series [3], over 36 µM. For the same molecule, the solubility in series [5] is under 0.5 µM.
